Results on 45 compounds are retold here after patent US7429578B2, “Tricyclic inhibitors of poly(ADP-ribose) polymerases” (Agouron Pharmaceuticals, Inc., priority 1999, dated 2008).

For data set [1], the target named is purified PARP protein (Homo sapiens, UniProt P09874). Briefly: PARP enzyme inhibition assay. Type of data set: biochemical.
The mark [2] stands for this setting: [32P]NAD+ incorporation, 500 μM NAD+, 25° C., two values in a cell = tested twice, read-out: Inhibition Constant Ki.

Structures are written as SMILES. Values joined by “and” are separate entries in the source; they are usually repeats but may differ in a detail not shown here. Equal entries are not always repeated. Structures can show the parent of a compound that is named as a salt. Where two headings read alike, the source gives them in different places.

purified PARP protein, sequence (P09874 whole entry): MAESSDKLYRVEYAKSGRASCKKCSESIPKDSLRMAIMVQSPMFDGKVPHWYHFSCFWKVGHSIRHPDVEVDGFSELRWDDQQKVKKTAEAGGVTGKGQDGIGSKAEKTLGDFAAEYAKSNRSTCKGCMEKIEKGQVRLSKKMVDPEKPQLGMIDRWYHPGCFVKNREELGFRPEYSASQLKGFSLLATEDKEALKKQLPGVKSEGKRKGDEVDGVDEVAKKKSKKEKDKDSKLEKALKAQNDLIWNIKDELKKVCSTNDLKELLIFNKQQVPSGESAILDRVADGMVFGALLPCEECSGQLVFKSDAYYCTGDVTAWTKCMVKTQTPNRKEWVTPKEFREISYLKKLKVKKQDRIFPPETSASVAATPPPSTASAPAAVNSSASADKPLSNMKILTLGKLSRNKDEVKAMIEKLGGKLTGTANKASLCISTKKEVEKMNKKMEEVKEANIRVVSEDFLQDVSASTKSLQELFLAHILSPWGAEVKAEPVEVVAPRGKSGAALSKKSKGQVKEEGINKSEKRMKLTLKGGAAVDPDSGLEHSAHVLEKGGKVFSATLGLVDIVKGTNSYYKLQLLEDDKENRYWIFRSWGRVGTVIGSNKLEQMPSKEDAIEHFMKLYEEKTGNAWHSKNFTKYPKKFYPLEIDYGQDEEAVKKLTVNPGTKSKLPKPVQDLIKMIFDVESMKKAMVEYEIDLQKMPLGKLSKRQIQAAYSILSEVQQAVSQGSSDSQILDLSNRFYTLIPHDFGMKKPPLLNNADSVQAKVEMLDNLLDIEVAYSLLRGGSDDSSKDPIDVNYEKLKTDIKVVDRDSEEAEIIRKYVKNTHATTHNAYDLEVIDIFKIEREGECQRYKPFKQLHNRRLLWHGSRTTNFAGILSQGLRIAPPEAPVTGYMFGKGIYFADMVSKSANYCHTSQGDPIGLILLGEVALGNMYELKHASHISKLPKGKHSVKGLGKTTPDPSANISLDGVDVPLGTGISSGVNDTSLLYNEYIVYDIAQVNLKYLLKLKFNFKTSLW

As to `O=C(Nc1ccccc1)c1[nH]c2cccc3c2c1CCNC3=O` [KKKK, 6-Oxo-1,3,4,5-tetrahydro-1H-azepino[5,4,3-cd]indole-2-carboxylic Acid Phenylamide], the melting point was 320 to 322 °C (dec.). On to `O=C1NCCc2c(-c3cccc(CCO)c3)[nH]c3cccc1c23` [ZZ, 2-[3-(2-Hydroxy-ethyl)-phenyl]-1,3,4,5-tetrahydro-azepino[5,4,3-cd]indol-6-one], for which the melting point fell in the range of 187.5 to 188.5 °C. Moreover, in data set [1] (setting [2]), the Ki worked out at 9.7 nM. In the same order, the values of `O=C1NCCc2c(-c3ccccc3O)[nH]c3cccc1c23` [DDD, 2-(2-Hydroxy-phenyl)-1,3,4,5-tetrahydro-azepino[5,4,3-cd]indol-6-one] are 305 °C (dec.) and 23 nM. Take `O=C1NCCc2c(-c3cccc(CN4CCCCC4)c3)[nH]c3cccc1c23` [SS]: the melting point lay in the range of 235 to 237 °C. For the same compound, the Ki in data set [1] (setting [2]) stood at 14 nM. `O=C1NCCc2c(-c3ccc(O)cc3)[nH]c3cccc1c23` [CCC, 2-(4-Hydroxy-phenyl)-1,3,4,5-tetrahydro-azepino[5,4,3-cd]indol-6-one]: the melting point was 300 °C (dec.). Further, in data set [1] (setting [2]), the Ki was found to be 7.3 nM. For `O=C1NCCc2c(-c3ccncc3)[nH]c3cccc1c23` [JJJ, 2-Pyridin-4-yl-1,3,4,5-tetrahydro-azepino[5,4,3-cd]indol-6-one], the melting point is 250 °C (dec.). In data set [1] (setting [2]), the Ki stood at 5.3 nM. With `N#Cc1[nH]c2cccc3c2c1CCNC3=O` [EEE, 6-Oxo-3,4,5,6-tetrahydro-1H-azepino[5,4,3-cd]indole-2-carbonitrile], the melting point is 315 °C (dec.). In data set [1] (setting [2]), the Ki is 10.6 nM. Take `O=C1NCCc2c(-c3ccccc3Cl)[nH]c3cccc1c23` [Compound 38, 2-(2-Chlorophenyl)-1,3,4,5-tetrahydro-azepino[5,4,3-cd]indol-6-one]: the melting point was 275 °C (dec.). Further, the Ki in data set [1] (setting [2]) stood at 8.4 nM. In data set [1] (Inhibition Constant Ki), `O=C1NCCc2c(-c3ccc[nH]3)[nH]c3cccc1c23` [DDDD, 2-(1H-Pyrrol-2-yl)-1,3,4,5-etatrhydro-azepino[5,4,3-cd]indol-6-one] came in with a Ki of 7.7 nM. In the case of `CSc1ccc(-c2[nH]c3cccc4c3c2CCNC4=O)cc1` [EEEE, 2-(4-Methylsulfanyl-phenyl)-1,3,4,5-tetrahydro-azepino[5,4,3-cd]indol-6-one], the melting point is 250 to 251 °C. For the same compound, the Ki in data set [1] (setting [2]) is 2.9 nM.

`O=C1NN=C(c2ccc(C(F)(F)F)cc2)c2c[nH]c3cccc1c23` [YYYY]: the Ki in data set [1] (setting [2]) was 9 nM. As for `O=C1NCCc2c(-c3ccc(C(F)(F)F)cc3)[nH]c3cccc1c23` [Compound 31, 2-(4-Trifluoromethyl-phenyl)-1,3,4,5-tetrahydro-azepino[5,4,3-cd]indol-6-one], the melting point was in the range of 208 to 209 °C. The Ki in data set [1] (setting [2]) is 5 nM. On to `O=C(Nc1cccc2ccccc12)c1[nH]c2cccc3c2c1CCNC3=O` [NNNN, 6-Oxo-1,3,4,5-tetrahydro-1H-azepino[5,4,3-cd]indole-2-carboxylic Acid naphthalen-1-ylamide], for which the melting point is 330 to 332 °C (dec.). The Ki in data set [1] (setting [2]) came out at 10 nM.

Take `CSc1ccccc1-c1[nH]c2cccc3c2c1CCNC3=O` [LLL, 2-(2-Methylsulfanyl-phenyl)-1,3,4,5-tetrahydro-azepino[5,4,3-cd]indol-6-one]: the melting point is 271 to 272 °C. Besides, in data set [1] (setting [2]), the Ki turned out to be 32 nM. Turning to `O=C1NCCc2c(-c3cccc4ccccc34)[nH]c3cccc1c23` [Compound 41, 2-Naphthalen-1-yl-1,3,4,5-tetrahydro-azepino[5,4,3-cd]indol-6-one], the melting point is 305 °C (dec.). In the case of `O=C1NCCc2c(Br)[nH]c3cccc1c23` [Compound 11, 2-Bromo-3,4,5,6-tetrahydro-1H-azepino[5,4,3-cd]indol-6-one], in data set [1] (setting [2]), the Ki is 7.3 nM.

Consider `CC1=NNC(=O)c2cccc3[nH]cc1c23` [QQ, 1,5-Dihydro-3-methyl-[1,2]diazepino[4,5,6-cd]-indol-6-one], for which the melting point lay within 335 to 336 °C. Besides, in data set [1] (setting [2]), the Ki was 5.5 nM and 4.5 nM. For the compound `CS(=O)(=O)c1ccc(-c2[nH]c3cccc4c3c2CCNC4=O)cc1` [GGGG, 2-(4-Methanesulfonyl-phenyl)-1,3,4,5-tetrahydro-azepino[5,4,3-cd]indol-6-one], the melting point is 308 to 309 °C (dec.). Further, the Ki in data set [1] (setting [2]) amounted to 6.2 nM.

As for `O=C(NC1CC1)c1[nH]c2cccc3c2c1CCNC3=O` [QQQQ, 6-Oxo-1,3,4,5-tetrahydro-1H-azepino[5,4,3-cd]indole-2-carboxylic Acid Cyclopropylamide], in data set [1] (setting [2]), the Ki worked out at 21 nM. Same read-out and setting: with `O=C1NCCc2c(C#Cc3ccccc3)[nH]c3cccc1c23` [Compound 17] the figure was 6.5 nM; with `COc1ccc(C2CNC(=O)c3cccc4[nH]cc2c34)cc1` (racemic) [RRRR, (rac)-3-(4-Methoxyphenyl)-3,4,5,6-tetrahydro-1H-azepino[5,4,3-cd]indol-6-one], 61 nM.

With `O=C1NCCc2c(-c3cccc([N+](=O)[O-])c3)[nH]c3cccc1c23` [Compound 14, 2-(3-Nitrophenyl)-3,4,5,6-tetrahydro-1H-azepino[5,4,3-cd]indol-6-one], in data set [1] (setting [2]), the Ki was 1.4 nM. In the case of `Cn1c(-c2ccccc2)c2c3c(cccc31)C(=O)NCC2` [Compound 18, 1-Methyl-2-phenyl-3,4,5,6-tetrahydro-1H-azepino[5,4,3-cd]indol-6-one], the Ki in data set [1] (setting [2]) was above 1000 nM. Same read-out and setting: then `O=C1NN=C(C(F)(F)C(F)(F)F)c2c[nH]c3cccc1c23` [ZZZZ, 1,5-Dihydro-3-pentafluoroethyl-[1,2]diazepino[4,5,6-cd]-indol-6-one], with 40 nM; and `O=C1NCCc2c(-c3ccc(F)c(Cl)c3)[nH]c3cccc1c23` [Compound 35, 2-(3-Chloro-4-fluoro-phenyl)-1,3,4,5-tetrahydro-azepino[5,4,3-cd]indol-6-one], with 3.8 nM and 5.8 nM; and `O=C1NCCc2c(-c3cccc(CN4CCOCC4)c3)[nH]c3cccc1c23` [SSSS, 2-(3-Morpholin-4-ylmethylphenyl)-3,4,5,6-tetrahydro-1H-azepino[5,4,3-cd]indol-6-one], with 19 nM. Still for that read-out and setting: then `O=C1NN=Cc2c(-c3ccc(Cl)cc3)[nH]c3cccc1c23` [ZZZ, (4-Chloro-phenyl)-1,5-dihydro-[1,2]diazepino[4,5,6-cd]indol-6-one], with 0.7 nM; and `CN(C)Cc1cccc(-c2[nH]c3cccc4c3c2CNC4=O)c1` [Compound 25], with 4 nM. In the case of `CC(=O)Nc1ccc(F)cc1-c1[nH]c2cccc3c2c1CCNC3=O` [NNN, N-[4-Fluoro-2-(6-oxo-3,4,5,6-tetrahydro-1H-azepino[5,4,3-cd]indol-2-yl)-phenyl]-acetamide], the Ki in data set [1] (setting [2]) came to 172 nM. `O=C1NCCc2c(I)[nH]c3cccc1c23` [Compound 43, 2-Iodo-1,3,4,5-tetrahydro-azepino[5,4,3-cd]indol-6-one]: the Ki in data set [1] (setting [2]) stood at 2.6 nM.

Regarding `O=C1NCC(c2ccccc2)c2c[nH]c3cccc1c23` (racemic) [Compound 20, (rac)-3-Phenyl-3,4,5,6-tetrahydro-1H-azepino[5,4,3-cd]indol-6-one], the Ki in data set [1] (setting [2]) was 45 nM. The same measure, in the same setting: with `O=C(Nc1ccc2ccccc2c1)c1[nH]c2cccc3c2c1CCNC3=O` [MMMM, 6-Oxo-1,3,4,5-tetrahydro-1H-azepino[5,4,3-cd]indole-2-carboxylic Acid naphthalen-2-ylamide] the figure was 16 nM.

For the compound `O=C1NCCc2c(-c3ccc4[nH]ccc4c3)[nH]c3cccc1c23` [VVV, 2-(1H-Indol-5-yl)-1,3,4,5-tetrahydro-azepino[5,4,3-cd]indol-6-one], the melting point is 315 to 317 °C (dec.). `O=C(O)c1[nH]c2cccc3c2c1CCNC3=O` [KKK, 6-Oxo-3,4,5,6-tetrahydro-1H-azepino[5,4,3-cd]indole-2-carboxylic acid sodium salt]: the Ki in data set [1] (setting [2]) stood at 222 nM. `O=C1NCCc2c(-c3ccc(CO)cc3)[nH]c3cccc1c23` [WWWW, 2-(4-Hydroxymethylphenyl)-3,4,5,6-tetrahydro-1H-azepino[5,4,3-cd]indol-6-one]: in data set [1] (setting [2]), the Ki was found to be 5.7 nM.

On to `CN1CCc2c(-c3ccccc3)n(C)c3cccc(c23)C1=O` [Compound 18a, 1,5-dimethyl-2-phenyl-3,4,5,6-tetrahydro-1H-azepino[5,4,3-cd]indol-6-one], for which the melting point lay within 175 to 177 °C. Consider `O=C1NCCc2c(-c3cccs3)[nH]c3cccc1c23` [BBBB, 2-Thiophen-2-yl-1,3,4,5-tetrahydro-azepino[5,4,3-cd]indol-6-one], for which the melting point lay in the range of 220.5 to 222.5 °C. In the case of `Nc1cccc(-c2[nH]c3cccc4c3c2CCNC4=O)c1` [RR, 2-(3-Aminophenyl)-3,4,5,6-tetrahydro-1H-azepino[5,4,3-cd]indol-6-one], the Ki in data set [1] (setting [2]) amounted to 6.9 nM. On the same count and under the same terms, then `O=C1NCCc2c[nH]c3cccc1c23` [Compound 10, 3,4,5,6-tetrahydro-1H-azepino[5,4,3-cd]indol-6-one], with 38 nM; and `O=C(Nc1ccc(Cl)cc1)c1[nH]c2cccc3c2c1CCNC3=O` [LLLL, 6-Oxo-1,3,4,5-tetrahydro-1H-azepino[5,4,3-cd]indole-2-carboxylic acid (4-chlorophenyl)-amide], with 8.6 nM. In the case of `O=C1NCCc2c(-c3[nH]c4cccc5c4c3CCNC5=O)[nH]c3cccc1c23` [Compound TTT, 1,3,4,5,1′,3′,4′,5′-Octahydro-[2,2′]bi[azepino[5,4,3-cd]indolyl]-6,6′-dione], the Ki in data set [1] (setting [2]) is 26 nM.

The compound `O=C1NCCc2c(-c3cccnc3)[nH]c3cccc1c23` [HHH, 2-Pyridin-3-yl-1,3,4,5-tetrahydro-azepino[5,4,3-cd]indol-6-one] showed a melting point of 260.5 to 262 °C. For the compound `O=C1NN=Cc2c(-c3ccc(F)cc3)[nH]c3cccc1c23` [AAAA], in data set [1] (setting [2]), the Ki turned out to be 1.1 nM. Still for that read-out and setting: then `O=C1NCc2c(-c3ccccc3)[nH]c3cccc1c23` [Compound 3, Phenyl-3,4-dihydropyrrolo[4,3,2-de]isoquinolin-5-(1H)-one], with 2.8 nM; and `O=C1NCCc2c(-c3ccccc3)[nH]c3cc(Br)cc1c23` [Compound 26, 8-Bromo-2-phenyl-3,4,5,6-tetrahydro-1H-azepino[5,4,3-cd]indol-6-one], with 22 nM and 18 nM.

Broadly, the melting point is the temperature, or range, at which the solid turns liquid. Usually Ki stands for a measure of affinity in units of concentration, obtained from inhibition or displacement.
